Data as given in article PMC12124432, “Antimicrobial Peptide‐Peptoid Macrocycles from the Polymyxin B2 Chemical Space” (Angewandte Chemie (International Ed. in English), 2025).
In brackets after ≈: the same amount, converted by molar mass. Numbered stars: 1 amine (or outer) side, 2 acyl side, 3 side chain; on linkers, the order of the positions; unused ones are H or OH. Bridge positions count the residues as written; N and C are the ends. Square brackets hold non-standard residues; d marks the D form. Peptide text beside a SMILES is read from it. * marks the point of attachment. NGly(CH2(3-pyridyl)) = O=C(O)CNCc1cccnc1; Propanoyl(3-cHex) = O=C(CCC1CCCCC1)*; Gly(NCH2CH2Ph) = O=C(O)CNCCc1ccccc1; Cyclopentylacetyl = O=C(CC1CCCC1)*; Gly(N-2-aminoethyl) = NCCNCC(=O)O; Heptanoyl(6-Me) = CC(C)CCCCC(=O)*; X1 = O=C(CN(Cc1ccccn1)[*:1])[*:2]; Pentanoyl(4-Me) = CC(C)CCC(=O)*; Gly(N(CH2)3NH2) = NCCCNCC(=O)O; Gly(N-cHex) = O=C(O)CNC1CCCCC1; N(iPr)Gly = CC(C)NCC(=O)O; Heptanoyl = CCCCCCC(=O)*; NHexGly = CCCCCCNCC(=O)O; Nphe = O=C(O)CNCc1ccccc1; Octanoyl = CCCCCCCC(=O)*; Dab = NCC[C@H](N)C(=O)O; Pentanoyl = CCCCC(=O)*; Nleu = CC(C)CNCC(=O)O; NPrGly = CCCNCC(=O)O; Nlys = NCCCCNCC(=O)O

Columns and labels:
P. aeruginosa PAO1 = format: cell-based, Pseudomonas aeruginosa; settings: PAO1, pH 8.5
Description: (§1) Minimal Inhibitory Concentration (MIC)
(§2) Antimicrobial activity was assayed for all the peptide-peptoids against P. aeruginosa PAO1, K. pneumoniae NCTC418, E. coli W3110, A. baumannii ATCC 19606, methicillin-resistant S. aureus COL (MRSA) and for selected peptides on P. aeruginosa PA14, as well as the clinical isolates ZEM-1A and ZEM9A, K. pneumoniae OXA-48, Enterobacter cloacae, Stenotrophomonas maltophilia and Staphylococus epidermidis. To determine the Minimal Inhibitory Concentration (MIC), Broth Microdilution method was used. A colony of bacteria was picked and grown in LB medium overnight at 37 °C. The next day, the culture was then regrown in LB medium to log phase (OD600 = 0.6 to 0.8), which lasted approximately 4 hours, and diluted to an OD600 of 0.022 in the desired medium (full MH or 12.5% MH).
(§3) The compounds were prepared as stock solutions of 2 mg/mL in sterilized MilliQ deionized water and then diluted in the desired media (full MH or 12.5% MH) to reach the first concentration tested (32 μg/mL). The compounds were added to the first well of a 96-well sterile, round bottom microtiter plates in polystyrene (TPP®, untreated) and diluted serially by ½ in the desired media (full MH or 12.5% MH), to a final volume of 150 µL/well. To each well was finally added 4 µL of the diluted bacterial suspension (see above), corresponding to approximately 5×10^5 CFU. For each test, two columns of the plate were kept for sterility control (medium only), growth control (medium with bacterial inoculum, no compound). The positive control, Polymyxin B (starting with a concentration of 16 µg/mL) in MH medium with bacterial inoculums, was introduced in the two first lines of the plate. The plates were incubated at 37 °C for ca. 18 hours under static conditions. 15 µL of 3-(4,5-dimethylthiazol-2-yl)-2,5-diphenyltetrazolium bromide (MTT)[7] (1 mg/mL in sterilized MilliQ deionized water) were added to each well and the plates were incubated for 20-30 minutes at room temperature. The […]
(§4) minimal inhibitory concentration (MIC) was defined as the lowest concentration of the compound that inhibits the visible growth of the tested bacteria (yellow) with the unaided eye.
(§5) Minimal Hemolytic Concentration (MHC) […]
(§6) 11. Minimal inhibitory in presence of salt
The same procedure as for the antibacterial activity measurements by minimal inhibitory concentration assay (MIC) was applied. The media, 12.5% Mueller-Hinton broth was this time supplemented with different salt concentrations (0, 100, 200 300 mM NaCl). The MIC activities were then determined against Pseudomonas aeruginosa PAO1 and Escherichia coli […]
Table S6. Minimal inhibitory concentration (MIC) on P. aeruginosa PAO1 as function of salt […]
(§7) All data, in μg/mL, measured against P. aeruginosa PAO1, with or without addition of salt (NaCl). The values were measured in dilute medium (12.5% MH) and at slightly basic pH (pH = 8.5), after incubation for 16-20 h at 37 °C. Values represent two different duplicate MIC determinations.

E. coli W3110 = format: cell-based, Escherichia coli; settings: W3110, pH 8.5
Description: as §1, §2, §3, §4, §5, §6
The same procedure as for the antibacterial activity measurements by minimal inhibitory concentration assay (MIC) was applied. The media, 12.5% Mueller-Hinton broth was this time supplemented with different salt concentrations (0, 100, 200 300 mM NaCl). […]
as §7

Row | Compound | MIC on P. aeruginosa, 0 mM NaCl (P. aeruginosa PAO1) [µg/mL] | MIC on P. aeruginosa, 100 mM NaCl (P. aeruginosa PAO1) [µg/mL] | MIC on P. aeruginosa, 200 mM NaCl (P. aeruginosa PAO1) [µg/mL] | MIC on P. aeruginosa, 300 mM NaCl (P. aeruginosa PAO1) [µg/mL] | MIC on E. coli, 0 mM NaCl (E. coli W3110) [µg/mL] | MIC on E. coli, 100 mM NaCl (E. coli W3110) [µg/mL] | MIC on E. coli, 200 mM NaCl (E. coli W3110) [µg/mL] | MIC on E. coli, 300 mM NaCl (E. coli W3110) [µg/mL]
1 | CC(C)N1CC(=O)N[C@@H](CCCCN)C(=O)N[C@@H](CO)C(=O)N[C@@H](CCCCN)C(=O)NCC[C@H](NC(=O)[C@H](CCCCN)NC(=O)[C@@H]2CCCN2C(=O)CN(CCc2ccccc2)C(=O)CCC2CCCCC2)C(=O)N[C@@H](CC(N)=O)C(=O)NCC1=O [EB37] ({Propanoyl(3-cHex)}-[Gly(NCH2CH2Ph)]PK[Dab]NG[N(iPr)Gly]KSK; lactam 4-C) | 32 (≈ 25.8 µM) | > 64 | > 64 | > 64 | 32 (≈ 25.8 µM) | > 64 | > 64 | > 64
2 | CCCN1CC(=O)N[C@@H](CC(N)=O)C(=O)N[C@@H](CCCCN)C(=O)N(CCCN)CC(=O)N[C@@H](CCCCN)C(=O)NCC[C@H](NC(=O)[C@H](CCCNC(=N)N)NC(=O)CNC(=O)CN(CCc2ccccc2)C(=O)CCC(C)C)C1=O [EB26] ({Pentanoyl(4-Me)}-[Gly(NCH2CH2Ph)]GR[Dab][NPrGly]NK[Gly(N(CH2)3NH2)]K; lactam 4-C) | 16 (≈ 13.8 µM) | > 64 | > 64 | > 64 | 4 (≈ 3.46 µM) | 16 (≈ 13.8 µM) | > 64 | > 64
3 | CC(C)CCCCC(=O)N[C@@H](CCN)C(=O)N[C@H](C(=O)N[C@@H](CCN)C(=O)N[C@H]1CCNC(=O)[C@H]([C@@H](C)O)NC(=O)[C@H](CCN)NC(=O)[C@H](CCN)NC(=O)[C@H](CC(C)C)NC(=O)[C@@H](Cc2ccccc2)NC(=O)[C@H](CCN)NC1=O)[C@@H](C)O [PMB2, polymyxin B2] ({Heptanoyl(6-Me)}-[Dab]T[Dab][Dab][Dab][dF]L[Dab][Dab]T; lactam 4-C) | 0.5 (≈ 0.42 µM) | 0.25 (≈ 0.21 µM) | 0.25 (≈ 0.21 µM) | 0.25 (≈ 0.21 µM) | 0.25 (≈ 0.21 µM) | 0.25 (≈ 0.21 µM) | 0.25 (≈ 0.21 µM) | 0.25 (≈ 0.21 µM)
4 | CC(C)C[C@H](NC(=O)CN(CC(C)C)C(=O)[C@H](CC(C)C)NC(=O)CN(CCCCN)C(=O)[C@H](CC(C)C)NC(=O)CN(CC(C)C)C(=O)[C@H](CCCCN)NC(=O)CN(CC(C)C)C(=O)[C@H](CC(C)C)NC(=O)CN(CCCCN)C(=O)[C@@H](N)CCCCN)C(N)=O [EB9, reference compound] (H-K[Nlys]L[Nleu]K[Nleu]L[Nlys]L[Nleu]L-NH2) | 2 (≈ 1.51 µM) | 32 (≈ 24.2 µM) | > 64 | > 64 | 2 (≈ 1.51 µM) | 16 (≈ 12.1 µM) | 64 (≈ 48.4 µM) | > 64
5 | CCCCCCN(CC(=O)N[C@H]1CCNC(=O)[C@H](CCCCN)NC(=O)CN(CCN)C(=O)CN(CCN)C(=O)[C@H](CCCCN)NC(=O)[C@H](CC(N)=O)NC(=O)[C@H](CCCCN)NC1=O)C(=O)[C@H](CCCCN)NC(=O)CN(Cc1ccccc1)C(=O)CCCC [EB22] (Pentanoyl-[Nphe]K[NHexGly][Dab]KNK[Gly(N-2-aminoethyl)][Gly(N-2-aminoethyl)]K; lactam 4-C) | 4 (≈ 3.08 µM) | > 64 | > 64 | > 64 | 1 (≈ 0.769 µM) | 16 (≈ 12.3 µM) | > 64 | > 64
6 | CCCCCCCC(=O)N(CCN)CC(=O)N[C@@H](Cc1ccc(O)cc1)C(=O)N[C@@H](CCCCN)C(=O)N[C@H]1CCNC(=O)[C@H](CCCCN)NC(=O)CN(CCN)C(=O)[C@H](CCCNC(=N)N)NC(=O)[C@H](CCCCN)NC1=O [EB14] (Octanoyl-[Gly(N-2-aminoethyl)]YK[Dab]KR[Gly(N-2-aminoethyl)]K; lactam 4-C) | 4 (≈ 3.54 µM) | > 64 | > 64 | > 64 | 1 (≈ 0.885 µM) | 16 (≈ 14.2 µM) | 64 (≈ 56.6 µM) | > 64
7 | CC(C)N(CC(=O)N[C@@H](CC(N)=O)C(=O)N[C@H]1CCNC(=O)[C@H](CCCCN)NC(=O)[C@H](CC(N)=O)NC(=O)CN(CCCCN)C(=O)[C@H](CCCCN)NC(=O)[C@H](CO)NC1=O)C(=O)CN(Cc1ccccc1)C(=O)CCC1CCCCC1 [EB36] ({Propanoyl(3-cHex)}-[Nphe][N(iPr)Gly]N[Dab]SK[Nlys]NK; lactam 4-C) | 32 (≈ 27 µM) | > 64 | > 64 | > 64 | 16 to 32 | > 64 | > 64 | > 64
8 | CCCCCCC(=O)N(CC(=O)N(CCCN)CC(=O)N(CCN)CC(=O)N[C@H]1CCNC(=O)[C@H](CCCCN)NC(=O)CN(C2CCCCC2)C(=O)CN(CCN)C(=O)[C@H](CCC(N)=O)NC(=O)[C@H](CCCNC(=N)N)NC1=O)Cc1ccccc1 [EB23] (Heptanoyl-[Nphe][Gly(N(CH2)3NH2)][Gly(N-2-aminoethyl)][Dab]RQ[Gly(N-2-aminoethyl)][Gly(N-cHex)]K; lactam 4-C) | 16 (≈ 13.1 µM) | > 64 | > 64 | > 64 | 2 (≈ 1.63 µM) | > 64 | > 64 | > 64
9 | CCCCCCCC(=O)N(CC(=O)N(CCCN)CC(=O)N[C@@H](CCC(N)=O)C(=O)N[C@H]1CCNC(=O)[C@H](CCCCN)NC(=O)[C@H](CCCCN)NC(=O)[C@H](CCC(N)=O)NC(=O)CN(CCCCN)C1=O)Cc1cccnc1 [EB34] (Octanoyl-[NGly(CH2(3-pyridyl))][Gly(N(CH2)3NH2)]Q[Dab][Nlys]QKK; lactam 4-C) | 32 (≈ 28.3 µM) | > 64 | > 64 | > 64 | 8 (≈ 7.08 µM) | > 64 | > 64 | > 64
10 | CC(C)[C@@H]1NC(=O)[C@H](CCCCN)NC(=O)CN(CCN)C(=O)[C@H](CC(N)=O)NC(=O)[C@@H](NC(=O)CN(CCN)C(=O)[C@H](CCCCN)NC(=O)CN(CCc2ccccc2)C(=O)CC2CCCC2)CCNC(=O)[C@H](CCCCN)NC1=O [EB20] (Cyclopentylacetyl-[Gly(NCH2CH2Ph)]K[Gly(N-2-aminoethyl)][Dab]N[Gly(N-2-aminoethyl)]KVK; lactam 4-C; N-terminus assumed) | 16 (≈ 13.7 µM) | > 64 | > 64 | > 64 | 1 (≈ 0.855 µM) | 64 (≈ 54.7 µM) | > 64 | > 64
11 | CCCCCCCC(=O)N(CC(=O)N(CCN)CC(=O)N[C@@H](CCC(N)=O)C(=O)N[C@H]1CCNC(=O)[C@H](CCCCN)NC(=O)[C@H](CCCCN)NC(=O)CN(CCCCN)C(=O)[C@H](CCCCN)NC1=O)Cc1ccccn1 [EB16] (Octanoyl-[X1][Gly(N-2-aminoethyl)]Q[Dab]K[Nlys]KK; lactam 4-C) | 4 (≈ 3.59 µM) | > 64 | > 64 | > 64 | 0.5 (≈ 0.448 µM) | 32 (≈ 28.7 µM) | > 64 | > 64
